Two molecules from patent US20100239652A1, “IMMUNOLIPOSOMES FOR TREATMENT OF CANCER” (UNIVERSITATSSPITAL BASEL, priority 2008, published 2010) can be followed below.

For one assay, the system named is HT-29 RDB. Put plainly: Cytotoxicity study, MTT staining. The class given is cell-based, human. The procedure:
(§1) Specific cytotoxicity of EGFR-targeted immunoliposomes containing doxorubicin was evaluated in target cells plated at a density of 8,000 cells per well in 96-well plates and allowed to grow overnight. Immunoliposomes or control treatments were applied for 2 h at 37° C., followed by washing with PBS and re-adding growth media. Cells were further incubated at 37 DC for 3 days and analyzed for cell viability using 3-(4,5-dimethylthiazol-2-yl)-2,5-diphenyl tetrazolium bromide (MTT) staining (41). For the cytotoxicity studies using the efflux pump inhibitor verapamil, this compound was added to the media at a concentration of 100 μM during the complete experiment.

In the next assay the test system is HT-29 WT. Put plainly: Cytotoxicity study, MTT staining. The class given is cell-based, human. The procedure: as §1
In the next assay the test system is MDA-MB-231 Vb100. The experiment in a line: Cytotoxicity study, MTT staining. The assay is classed as cell-based, human. The protocol:
as §1

The next assay deals with MDA-MB-231/mdr cells. Put plainly: Accumulation of doxorubicin in the cytoplasma and nuclei. The class given is cell-based, human. To be noted: multidrug resistant tumor cells. The protocol: For comparative accumulation studies, tumor cells (HT-29, HT-29 ROB, MDA-MB-231 or MDA-MB-231 Vb100) have been plated at a density of 200,000 cells per well in 12-well plates. Free doxorubicin, non-targeted liposomal doxorubicin (PLD) and immunoliposomal doxorubicin have been applied at a doxorubicin concentration of 3 μg/ml for 2 h at 37° C., followed by 2 washing rounds with media. Verapamil was added to the experiment in a concentration of 0, 10 or 100 μM. After another 2 h incubation without any treatment cells were analyzed as follows:
After removing the media, cells were washed once with 1 ml of culture medium containing FCS, followed by 1 ml of PBS with calcium and magnesium at room temperature (RT) for 3 min. […] For nuclear accumulation of doxorubicin the pellet with the nuclei was washed twice with 500 μl PBS containing 1% C100T and using subsequent centrifugation as described before. After careful removing of the final supernatant, doxorubicin from the pellets was extracted overnight by 400 μl 50% acid methanol.
From both cytoplasmic and nuclear extracts, 300 μl were transferred into a 96-well plate and measured by a “SpertraMax Gemini Fluorimeter” (Molecular Devices).

In assay [1] the test system is MDA-MB-231 wild type xenograft. The experiment in a line: Tumor xenograft model, wild type. The assay is classed as in vivo. Particulars: for antitumor effect (tumor growth): i.v. 10 mg doxorubicin/kg once weekly for 3 weeks, total 30 mg dox/kg, compared to saline. The procedure:
(§2) Efficacy for non-targeted liposomes versus anti-EGFR immunoliposomes were studied in the MDA-MB-231 wild type and resistant breast cancer xenograft tumor model. Swiss nu/nu mice (5-6 weeks; Charles River, France) were injected subcutaneously (s.c.) with EGFR-overexpressing MDA-MB-231 tumor cells (1×10^7 cells, wild type or resistant) into the back of the animal. […] Free drug was injected on the same schedule as liposomes or immunoliposomes intravenously at their MTD of 30 mg dox/kg for doxorubicin. In control groups, saline was administered intravenously at the same injection volume and schedule.
(§3) Tumor growth was monitored for a period of 55-100 days post tumor implantation. Mice were weighted and examined for toxicity three times a week. Tumor measurements were performed 2-3 times weekly using a caliper, and tumor volumes were calculated using the equation: (length × width^2)/2.
In the wild-type MDA-MB-231 xenograft model lacking mdr features, anti-EGFR immunoliposome-dox was administered i.v. at a total dose of 30 mg dox/kg divided into three weekly doses of 10 mg/kg. […] Control treatments included: saline; free doxorubicin and non-targeted liposomal doxorubicin (commercial pegylated liposomal doxorubicin; PLD) at the same dose and schedule as immunoliposomes.
(§4) In addition, a multivariate (rank) test was performed based on the sums of ranks for each mouse. Tumor size at each time point after last treatment was ranked across all mice for that day and the ranks were summed. The sum of the ranks was compared in each case for two treatments by a 2-sample t-test (42).

The subject of assay [2] is MDA-MB-231 Vb100 xenograft. The experiment in a line: Tumor xenograft model, multi-drug resistant. The assay is classed as in vivo. To be noted: i.v. 10 mg doxorubicin/kg once weekly for 3 weeks, total 30 mg dox/kg, compared to saline. The procedure: as §2, §3
Comparators included saline, free doxorubicin and non-targeted liposomal doxorubicin (commercial pegylated liposomal doxorubicin; PLD) at the same dose and schedule as immunoliposomes.
as §4

Converted amounts (≈) assume the structure as drawn.

As to `COc1cccc2c1C(=O)c1c(O)c3c(c(O)c1C2=O)C[C@@](O)(C(=O)CO)C[C@@H]3O[C@H]1C[C@H](N)[C@H](O)[C@H](C)O1` [free dox, doxorubicin], the IC50 with HT-29 RDB (HT-29/mdr cells, summary in description) was 6.0 μg dox/ml; with HT-29 RDB (treatment for 2 h, MTT after 3 days, multi-drug resistant sub cell line) it was 9.5 µg/mL (≈ 17.5 µM); in the assay with HT-29 WT (non-resistant HT-29 cells, summary in description), 0.36 μg dox/ml; in the assay on HT-29 WT (treatment for 2 h, MTT after 3 days) it was 0.3 µg/mL (≈ 0.552 µM); in the assay with MDA-MB-231 Vb100 (highly drug resistant, 2 h treatment, MTT after 3 days), 130 µg/mL (≈ 239 µM); with MDA-MB-231 Vb100 (in the presence of verapamil (100 μM)), 0.9 µg/mL. For the same molecule, the intracellular distribution entry with MDA-MB-231/mdr cells was “efficiently pumped out”. Besides, the figures for the “antitumor effect (tumor growth)” value in assay [1], in assay [2] and in assay [2] (listed as free doxorubicin) were “some tumor growth inhibition”, “failed to show any activity” and “did not show any tumor growth inhibition”, respectively.

B1: EMD72000-ILs-dox (conjugate, chains of the INN, looked up)
VH: QVQLVQSGAEVKKPGASVKVSCKASGYTFTSHWMHWVRQAPGQGLEWIGEFNPSNGRTNYNEKFKSKATMTVDTSTNTAYMELSSLRSEDTAVYYCASRDYDYDGRYFDYWGQGTLVTVSS
VL: DIQMTQSPSSLSASVGDRVTITCSASSSVTYMYWYQQKPGKAPKLLIYDTSNLASGVPSRFSGSGSGTDYTFTISSLQPEDIATYYCQQWSSHIFTFGQGTKVEIK
modifications: doxorubicin-loaded immunoliposomes
Consider B1, for which the “tumor regrowth during follow-up” value in assay [1] (after day 77 until end of observation (day 100)) is “did not show growth activity”. In addition, the “antitumor effect (tumor growth)” value in assay [1] and in assay [2] was “substantial tumor regressions” throughout.
